Patent US20200181284A1, “EPIGENETIC INHIBITORS FOR SENSITIZING HEMATOLOGIC OR OTHER MALIGNANCIES TO GLUCOCORTICOID THERAPY” (UNIVERSITY OF SOUTHERN CALIFORNIA, priority 2017, published 2020)

Columns and labels:
[1] = tested on: lung, breast and glioblastoma cancers; details: dosages of 5-50 mg/kg; cited from earlier work
hG9a [2] = molecular target: T1, hG9a (Homo sapiens, UniProt Q96KQ7); assay: Methylation of HA-hG9a in Cos-7 cells (pan met-K immunoprecipitation/immunoblot); assay type: cell-based, African green monkey; details: Cos-7 cells expressing HA-hG9a N, 2 μM, 24 h
T1 construct: transfected with a plasmid encoding full length HA-hG9a and treated with 2 μM UNC0646; expressed in transfected cells; host or cells: Cos-7
Method: (§1) Cells were transiently transfected (where indicated) using Lipofectamine 2000 (Invitrogen) with 5 μg each of the indicated plasmids according to the manufacturer's protocol. […] Protein extracts were incubated with 1 μg of the indicated primary antibodies overnight at 4° C. with shaking. Protein A/G Plus Agarose (Santa Cruz sc-2003) beads were added and the mixture was incubated 2 hr at 4° C. The immunoprecipitates were separated on SDS-PAGE. Immunoblotting was conducted with primary antibodies against HA epitope (3F10 Roche Applied Science); G9a (G6919), FLAG (F1804), (3-actin (A5441), or GAPDH (G9545) from Sigma; aurora kinase B (ab2254), HP1γ (ab10480), HP1γ (ab56978), phospho-593-HP1γ (ab45270) or pan methyllysine (ab23366) from Abcam; GR (sc-8992) from Santa Cruz; GLP (09-078), or pan phospho-threonine (AB1607) from Millipore; phospho-S211-GR (#4161), H3K9me3 (#13969), H3S10ph (#53348), Histone H3 (#4499) from Cell signaling; or E-cadherin (610182) from BD transduction laboratories. Secondary antibodies from Santa Cruz Biotechnology (anti-rat) and Promega (anti-rabbit and anti-mouse) were used for chemiluminescence detection using Super Signal West Dura (Thermo Scientific) for proteins with low expression levels and ECL prime detection reagent (Amersham) for all other proteins according to the manufacturers' instructions. In immunoprecipitation experiments 3% of the input of each sample was analyzed by immunoblot using the antibodies listed.
(§2) Lysates were immunoprecipitated (IP) with pan met-K antibody and immunoblotted with HA antibody (top), or the usage of the two antibodies was reversed (bottom). Expression of HA-tagged proteins and β-actin (loading control) in the unfractionated extracts is shown at the bottom (Input). For FIG. 17D, Cos-7 cells were transfected with a plasmid encoding full length HA-hG9a and treated with 2 μM UNC0646 or vehicle DMSO for 24 h. Lysates were immunoprecipitated with pan met-K antibody and immunoblotted with HA antibody (top), or the usage of the two antibodies was reversed (bottom).
(§3) Lysates were immunoprecipitated with pan met-K antibody and immunoblotted with HA antibody (top).

hG9a [3] = molecular target: T2, hG9a (Homo sapiens, UniProt Q96KQ7); assay: as above; assay type: cell-based, African green monkey; details: Cos-7 cells, 2 μM inhibitor, 24 h
T2 construct: transfected with a plasmid encoding full length HA-hG9a and treated with 2 μM UNC0646; expressed in transfected cells; host or cells: Cos-7
T2 sequence (Q96KQ7 1-1210): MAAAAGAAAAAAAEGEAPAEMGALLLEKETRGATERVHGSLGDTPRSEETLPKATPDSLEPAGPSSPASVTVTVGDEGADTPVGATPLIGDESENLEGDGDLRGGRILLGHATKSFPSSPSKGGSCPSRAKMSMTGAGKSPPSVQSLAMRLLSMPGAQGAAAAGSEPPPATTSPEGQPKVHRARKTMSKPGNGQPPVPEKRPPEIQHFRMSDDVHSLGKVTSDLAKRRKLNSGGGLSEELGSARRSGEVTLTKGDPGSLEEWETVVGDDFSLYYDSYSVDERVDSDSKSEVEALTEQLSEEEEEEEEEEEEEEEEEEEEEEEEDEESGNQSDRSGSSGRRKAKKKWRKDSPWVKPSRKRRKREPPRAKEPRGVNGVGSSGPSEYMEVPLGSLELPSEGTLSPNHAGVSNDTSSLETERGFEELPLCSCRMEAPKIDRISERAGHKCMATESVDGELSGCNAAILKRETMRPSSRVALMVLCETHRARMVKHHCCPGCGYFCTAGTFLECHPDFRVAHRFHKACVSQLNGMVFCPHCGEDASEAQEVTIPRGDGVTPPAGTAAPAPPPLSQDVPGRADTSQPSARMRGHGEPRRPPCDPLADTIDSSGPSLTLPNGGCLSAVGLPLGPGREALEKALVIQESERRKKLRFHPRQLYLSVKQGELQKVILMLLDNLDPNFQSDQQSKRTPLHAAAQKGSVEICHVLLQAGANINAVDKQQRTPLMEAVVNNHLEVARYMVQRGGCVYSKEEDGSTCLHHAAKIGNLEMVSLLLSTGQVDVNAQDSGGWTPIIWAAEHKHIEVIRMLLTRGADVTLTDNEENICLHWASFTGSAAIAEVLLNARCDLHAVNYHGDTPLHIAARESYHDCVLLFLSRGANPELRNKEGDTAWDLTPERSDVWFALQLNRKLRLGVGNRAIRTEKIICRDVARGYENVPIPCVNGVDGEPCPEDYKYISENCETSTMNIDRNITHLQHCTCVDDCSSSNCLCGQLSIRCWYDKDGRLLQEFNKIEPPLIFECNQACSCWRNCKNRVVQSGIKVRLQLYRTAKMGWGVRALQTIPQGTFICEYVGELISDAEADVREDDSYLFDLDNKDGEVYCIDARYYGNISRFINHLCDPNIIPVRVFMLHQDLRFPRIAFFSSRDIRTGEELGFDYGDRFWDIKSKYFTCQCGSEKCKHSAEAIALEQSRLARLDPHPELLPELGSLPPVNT
Method: as §1, §2, §3

[4] = tested on: phosphorylation of GR or HP1γ; assay: Immunoblot of GR and HP1γ phosphorylation in A549 cells; assay type: cell-based, human; details: 2 μM, 24 h
Method: Cos-7 or A549 cells were seeded on 10-cm dishes the day before transfection. Cells were transiently transfected (where indicated) using Lipofectamine 2000 (Invitrogen) with 5 μg each of the indicated plasmids according to the manufacturer's protocol. At 48 h after transfection, cells were treated (or not) with dex for the indicated time period, and cell extracts were prepared in RIPA buffer (50 mM Tris-HCl, pH 8, 150 mM NaCl, 1 mM EDTA, 1% NP-40 and 0.25% deoxycholate) supplemented with protease inhibitor tablets (Roche Molecular Biochemicals) and phosphatase inhibitors (1 mM NaF, 1 mM Na3VO4 and 1 mM β-glycerophosphate). Protein extracts were incubated with 1 μg of the indicated primary antibodies overnight at 4° C. with shaking. Protein A/G Plus Agarose (Santa Cruz sc-2003) beads were added and the mixture was incubated 2 hr at 4° C. The immunoprecipitates were separated on SDS-PAGE. […] In immunoprecipitation experiments 3% of the input of each sample was analyzed by immunoblot using the antibodies listed.
102371 Aurora kinase B inhibition has no effect of phosphorylation of GR or HP1γ as highlighted in the results as shown in FIG. 27E. […] Whole-cell extracts were analyzed with the listed antibodies by immunoblot.

Clc1ccc(N/N=C(\c2ccccc2)c2ccccn2)nc1 [JIB-04, 5-chloro-N-[(E)-[phenyl(pyridin-2-yl)methylidene]amino]pyridin-2-amine]
efficacy in mouse xenograft models [1]: effective

COc1cc2c(NC3CCN(C4CCCCC4)CC3)nc(N3CCCN(C(C)C)CC3)nc2cc1OCCCN1CCCCC1 [UNC0646]
methylation of the N-terminal G9a fragment (hG9a [2]): decreased | pan-methyllysine antibody signal on wild type hG9a (hG9a [3]): strongly decreased

COc1cc2c(Nc3ccc(NC(=O)c4ccccc4)cc3)ncnc2cc1OCCCN1CCOCC1 [ZM447439, N-[4-[[6-methoxy-7-(3-morpholin-4-ylpropoxy)quinazolin-4-yl]amino]phenyl]benzamide]
phosphorylation of GR or HP1γ [4]: no effect
